Measurements: article PMC9697446 (International Journal of Molecular Sciences, 2022)

Assays:
[1] = test system: isolated rat liver mitochondria; test: Mitochondrial membrane potential and calcium-induced depolarization (safranine O); type: biochemical; details: for Effect on calcium-induced mitochondrial depolarization at 30 μM: 12.5 µM CaCl2; for ΔΨm, CI (g/m) / ΔΨm, CII (s/r): depolarization after 10-min incubation with 30 µM compound, mean ± SD; for ΔΨm, CI (g/m): complex I substrates (glutamate, malate); for ΔΨm, CII (s/r): complex II substrate (succinate) in the presence of rotenone
Description: The primary screening of new compounds to determine their effect on the mitochondrial membrane potential formed due to respiratory chain (RC) activity after additions of RC substrates was performed on isolated rat liver mitochondria. It can be used to estimate the probability of the potential toxicity of these compounds. Furthermore, the influence of the compounds on the calcium-dependent depolarization of isolated rat liver mitochondria in this assay made it possible to evaluate the effect on the mitochondrial permeability transition.
Rat liver mitochondria were isolated by conventional differential centrifugation from the livers of adult Wistar strain rats that fasted overnight, pH 7.6 [83, 84]. The mitochondrial protein concentration was determined using a biuret procedure with bovine serum albumin as the standard.
(§1) Safranine O (10 µM) was used as a membrane potential probe. Fluorescence intensity at 580 nm (excitation at 520 nm) was measured with a Wallac Victor 3 1420 Multilabel Counter (Perkin Elmer, Turku, Finland). The mitochondrial protein concentration was 0.2 mg/mL. The medium for measurements contained 75 mM sucrose, 225 mM mannitol, 10 mM K-HEPES (pH 7.4), 0.02 mM EGTA, and 1 mM KH2PO4. After a 5-min incubation, 5 mM glutamate/malate or 5 mM succinate in the presence of 0.5 µM rotenone were added to produce the mitochondrial potential. Then, the compounds (30 µM) or the same volume of the vehicle (DMSO) were injected into the mitochondrial suspension. After 15–20 min, 12.5 µM CaCl2 was added to each sample to induce the depolarization of mitochondria, and after 5 min, 0.5 µM CCCP was added for maximum depolarization of the mitochondria. The level of depolarization (ΔΨm) was calculated using the fluorescence value after 10-min incubation with 30 µM of compounds (or vehicle) normalized between the fluorescence measurements after substrate and CCCP addition, where fluorescence intensity at 580 nm was 100% after substrate addition and was 0% after CCCP addition.

[2] = target: T1, tubulin (Sus scrofa, UniProt P02550+P02554); test: Tubulin polymerization (microtubule assembly); type: biochemical; details: for Tubulin polymerization rate, % of control at 100 µM: read-out: Tubulin polymerization rate (dA355/dt), % Control; for Increase in the rate of tubulin polymerization: 100 µM
T1 construct: purchased Cytoskeleton, Inc. HTS-Tubulin polymerization assay kit
T1 sequence (P02550 whole entry): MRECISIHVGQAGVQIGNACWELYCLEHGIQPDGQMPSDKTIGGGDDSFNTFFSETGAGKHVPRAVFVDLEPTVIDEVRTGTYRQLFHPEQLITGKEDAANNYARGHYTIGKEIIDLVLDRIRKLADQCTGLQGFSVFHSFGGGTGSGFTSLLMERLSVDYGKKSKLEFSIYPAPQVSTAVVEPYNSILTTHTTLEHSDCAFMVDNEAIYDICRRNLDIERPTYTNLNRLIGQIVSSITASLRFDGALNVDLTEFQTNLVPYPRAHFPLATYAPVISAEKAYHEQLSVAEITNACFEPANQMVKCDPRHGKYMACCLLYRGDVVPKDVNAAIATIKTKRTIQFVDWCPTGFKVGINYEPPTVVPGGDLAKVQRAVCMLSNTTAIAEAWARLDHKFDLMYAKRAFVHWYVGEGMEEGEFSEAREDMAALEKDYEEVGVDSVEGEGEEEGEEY
T1 sequence (P02554 whole entry): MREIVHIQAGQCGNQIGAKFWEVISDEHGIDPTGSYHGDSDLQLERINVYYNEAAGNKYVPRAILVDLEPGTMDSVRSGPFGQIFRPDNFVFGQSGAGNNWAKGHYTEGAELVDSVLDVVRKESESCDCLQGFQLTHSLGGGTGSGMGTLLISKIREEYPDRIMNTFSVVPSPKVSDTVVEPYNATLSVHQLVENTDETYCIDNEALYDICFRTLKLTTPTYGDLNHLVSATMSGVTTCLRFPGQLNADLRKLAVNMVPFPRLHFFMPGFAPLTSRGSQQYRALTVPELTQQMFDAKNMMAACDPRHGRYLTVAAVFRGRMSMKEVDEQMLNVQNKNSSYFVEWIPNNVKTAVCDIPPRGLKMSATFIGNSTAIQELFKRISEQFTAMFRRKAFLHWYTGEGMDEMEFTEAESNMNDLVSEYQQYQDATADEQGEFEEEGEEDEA
Description: The assembly of tubulin into microtubules was carried out using pure tubulin from an HTS-Tubulin polymerization assay kit (Cytoskeleton, Inc., Denver, CO, USA). A standard polymerization reaction used 100 μL of 4 mg/mL tubulin in 80 mM PIPES (pH 6.9), 0.5 mM EGTA, 2 mM MgCl2, and 1 mM GTP. Polymerization was monitored by recording the change in absorbance on a Wallac Victor 3 1420 Multilabel Counter (Perkin Elmer, Turku, Finland) at λ = 3 55 nm. Electron microscopic monitoring was carried out with a Carl Zeiss Libra 120 electron microscope (Carl Zeiss Meditec AG, Jena, Germany) at 120 kV using negative contrasting.

[3] = test system: porcine liver CES; test: CES inhibition (4-nitrophenyl acetate hydrolysis); type: biochemical; details: ± SEM, n = 3;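 also: values are percent inhibition of CES activity not residual activity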
Description: The esterase profile was estimated using the human erythrocyteAChE, the equine serum BChE, and the porcine liver CES.
Human erythrocyte AChE, equine serum BChE, porcine liver CES, acetylthiocholine iodide (ATCh), butyrylthiocholine iodide (BTCh), 5,5′-dithio-bis-(2-nitrobenzoic acid) (DTNB), 4-nitrophenol acetate (4-NPA), and BNPP were purchased from Sigma-Aldrich (St. Louis, MO, USA).
The assay solution consisted of 0.1 M K/Na phosphate buffer pH 8.0, 25 °C, with the addition of 1 mM 4-nitrophenyl acetate and 0.02 unit/mL of CES. The assays were carried out with a blank containing all components, except CES.
The test compounds were dissolved in DMSO, and the incubation mixture contained 2% (v/v) of the solvent. Enzyme inhibition was first assessed at a single concentration of 20 µM for each compound after a 5 min incubation at 25 °C in three separate experiments. […] The test compounds were added to the assay solution and preincubated at 25 °C with the enzymes for 5 min, followed by the addition of substrate. A parallel control was made for the assay solution with no inhibitor. Measurements were performed with a FLUOStar Optima microplate reader (BMG Labtech, Ortenberg, Germany). Each experiment was performed in triplicate. The results were expressed as the mean ± SEM. The reaction rates in the presence and absence of the inhibitor were compared, and the percent of residual enzyme activity due to the presence of test compounds was calculated.

[4] = ABTS radical cation scavenging assay; details: 1 h incubation, means ± SEM (n = 3); for IC50: 50% reduction of ABTS radical; for ABTS Scavenging Activity, TEAC Value: Trolox equivalent antioxidant capacity
Description: The ABTS assay is based on the direct binding of a model ABTS radical cation (2,2′-azino-bis-(3-ethylbenzothiazoline-6-sulfonate), ABTS^•+) by antioxidants. The measurements were performed as previously described in detail.
The radical scavenging activity was expressed as TEAC values (Trolox equivalent antioxidant capacity) and determined as the ratio between the slopes obtained from the linear correlation of the ABTS radical absorbance with the concentrations of the test compounds and Trolox.
The radical scavenging activity of the compounds was assessed using an ABTS radical decolorization assay. The procedure followed the reported protocol with minor modifications. ABTS (2,2ʹ-azino-bis-(3-ethylbenzothiazoline-6-sulfonic acid) diammonium salt) was purchased from TCI (Tokyo, Japan), while potassium persulfate (di-potassium peroxodisulfate), Trolox (6-hydroxy-2,5,7,8-tetramethylchroman-2-carboxylic acid), catechol, and DMSO were received from Sigma-Aldrich Chemical Co. (St. Louis, MO, USA). The ethanol was HPLC grade. Aqueous solutions were prepared using deionized water.
Trolox was used as the standard reference compound. Catechol was used as the positive control. All test and reference compounds were dissolved in DMSO. The final concentration of DMSO in the reaction mixture was 4% (v/v).
The solution of ABTS radical cation (ABTS^•+) was produced by mixing a 7 mM ABTS stock solution with a 2.45 mM aqueous solution of potassium persulfate in equal quantities and allowing them to react for 12–16 h at room temperature in the dark. At the time of activity determination, the ABTS^•+ solution was diluted with ethanol to adjust it to an absorbance value of about 0.80 ± 0.05 at 734 nm. A fresh working solution of ABTS^•+ was prepared for each assay.
The radical scavenging capacity of the compounds was analyzed by mixing 10 μL of test compound with 240 μL of ABTS^•+ working solution. The reduction in absorbance was measured spectrophotometrically at 734 nm using an xMark microplate UV/VIS spectrophotometer (Bio-Rad, Hercules, CA, USA). The reaction was monitored for an hour at 10 min intervals. Data were given for 1 h of incubation of compounds with ABTS^•+. EtOH blanks were run in each assay. The results were obtained from three replicates of each sample and three independent experiments.
The antioxidant capacity as a Trolox equivalent (TEAC values) was determined as the ratio between the slopes obtained from the linear correlation of concentrations of test compounds and Trolox with absorbance of ABTS radical.

[5] = test system: isolated rat liver mitochondria; test: Bypass of rotenone (complex I) inhibition, mitochondrial repolarization; type: biochemical; details: mitochondria energized by glutamate/malate, rotenone added
Description: The ability to bypass complex I inhibition was determined for MB, its reduced form MBH2, and compound 4i (Figure 4).
The addition of rotenone to mitochondria energized by complex I substrates (glutamate/malate) causes considerable depolarization.
as §1

[6] = 100 µM compound, means ± SEM (n = 6)

| SMILES | Effect on calcium-induced mitochondrial depolarization at 30 μM [1] | ΔΨm, CI (g/m) [1] [%] | ΔΨm, CII (s/r) [1] [%] | Structure of microtubules formed (electron microscopy) [2] | Tubulin polymerization rate, % of control at 100 µM [2, 6] [%] | CES inhibition at 20 µM [3] [%] | IC50 [4] [µM] | ABTS Scavenging Activity, TEAC Value [4] | Repolarization of rotenone-depolarized mitochondria (bypass of complex I inhibition) [5] | Increase in the rate of tubulin polymerization [2] | Tubulin polymerization rate (dA355/dt), % Control [2, 6] [% Control] |
| --- | --- | --- | --- | --- | --- | --- | --- | --- | --- | --- | --- |
| CC1CCc2c(c3cc(OC(F)(F)F)ccc3n2CCC(=O)N2c3ccc(N(C)C)cc3Sc3cc(N(C)C)ccc32)C1 (stereo not drawn) [Compound 4i] | completely suppress | 6 ± 3 | 18 ± 2 | straight, long microtubules with a normal structure | 207 ± 5 | 3.5 ± 0.4 | 17.2 ± 1.2 | 1.14 ± 0.11 | exhibits this type of activity only in a 10 µM concentration |  |  |
| CN(C)c1ccc2c(c1)Sc1cc(N(C)C)ccc1N2C(=O)CCn1c2c(c3ccccc31)CCCCC2 [Compound 4j] |  | 21 ± 9 | 66 ± 1 |  |  | 11.3 ± 1.2 | 16.3 ± 1.4 | 1.15 ± 0.09 |  |  |  |
| Cc1ccc2c(c1)c1c(n2CCC(=O)N2c3ccc(N(C)C)cc3Sc3cc(N(C)C)ccc32)CCCCC1 [Compound 4k] |  | 6 ± 3 | 62 ± 1 |  |  | 5.3 ± 0.6 | 15.4 ± 1.3 | 1.20 ± 0.13 |  |  |  |
| CN(C)c1ccc2c(c1)Sc1cc(N(C)C)ccc1N2C(=O)CCn1c2c(c3ccccc31)CCCCCC2 [Compound 4m] |  | 23 ± 9 | 57 ± 6 |  |  | 13.0 ± 1.1 | 16.7 ± 1.6 | 1.11 ± 0.07 |  |  |  |
| Cc1ccc2c(c1)c1c(n2CCC(=O)N2c3ccc(N(C)C)cc3Sc3cc(N(C)C)ccc32)CCCCCC1 [Compound 4n] |  | 23 ± 6 | 65 ± 1 |  |  | 33.1 ± 3.1 | 14.9 ± 1.2 | 1.20 ± 0.14 |  |  |  |
| CN(C)c1ccc2nc3ccc(=[N+](C)C)cc-3sc2c1 [MB, Methylene blue, reference compound] | completely suppress | 14 ± 7 | 40 ± 9 | straight, long microtubules with a normal structure | 168 ± 17 | 12.3 ± 1.5 |  | not detectable | concentration-dependent repolarization | more than 1.5 fold |  |
| CN(C)c1ccc2c(c1)Sc1cc(N(C)C)ccc1N2 [MBH2, reference compound] |  | 0 | 18.2 ± 1.1 |  |  | 17.2 ± 1.8 |  | not detectable | concentration-dependent repolarization | more than 1.5 fold | 178 ± 11 |
